Structures are written as SMILES. In brackets after ≈: the same amount, converted by molar mass. Like-named read-outs stand apart in the source and are kept apart here. Where a SMILES comes first, the peptide text is derived from it. Bridges are numbered along the chain shown (N, C = ends). Roman numbers before positions name the chains, in order. [ ]: non-standard residue; d: D form. The star is where a group is joined. Tyrosinol = OC[C@H](Cc1ccc(O)cc1)N*; Tle = CC(C)(C)[C@H](N)C(=O)O; dDab = NCC[C@@H](N)C(=O)O; hSer = N[C@@H](CCO)C(=O)O; Dab = NCC[C@H](N)C(=O)O; Dap = NC[C@H](N)C(=O)O

What all share (assay type): cell-based
The subject of data set [1] is Acinetobacter baumannii 872842. A digest of the protocol:
(§1)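 Visible-growth endpoint after 18-20 h at 35° C defines the MIC (μg/mL). Setup: CLSI broth microdilution, MH-II cation-adjusted broth with P-80 at 0.002% final, inoculum of approximately 10^6 CFU/mL, two-fold serial peptide dilutions.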

The subject of data set [2] is Acinetobacter baumannii DSM 30008. In a few lines:
as §1

In data set [3] the test system is Enterobacter cloacae 848840. In a few lines: as §1
The next data set relates to Escherichia coli 926415. A digest of the protocol: as §1
The subject of data set [4] is Escherichia coli ATCC 25922. In a few lines:
as §1

The test system of data set [5] is Klebsiella pneumoniae 968733. A digest of the protocol:
as §1

In data set [6] the test system is Klebsiella pneumoniae SSI #3010. In a few lines:
as §1

Data set [7] deals with Pseudomonas aeruginosa ATCC 27853. A digest of the protocol:
as §1

For data set [8], the system named is human red blood cells (hRBC). Description: Hemolysis. A digest of the protocol: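 hRBC washed 4× in PBS; 200 μg/mL peptide + 20% (v/v) hRBC, 1 h, 37° C, 300 rpm. Spin, supernatant ~7.5-fold diluted, OD540 blank corrected. % hemolysis = OD540 peptide / OD540 Triton X-100 × 100.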

Consider `CC(=O)N[C@H](C(=O)N[C@H]1CSSC[C@@H](C(=O)N[C@@H](CO)C(N)=O)NC(=O)[C@H](C(C)C)NC(=O)[C@H](CO)NC(=O)[C@H](Cc2c[nH]c3ccccc23)NC(=O)[C@H](CO)NC(=O)[C@@H](CCN)NC(=O)[C@H](CCC(=O)N[C@@H](CCN)C(=O)NCC(=O)N[C@@H](CN)C(=O)N[C@H]2CCNC(=O)[C@H]([C@@H](C)O)NC(=O)[C@H](CCN)NC(=O)[C@H](CCN)NC(=O)[C@H](CC(C)C)NC(=O)[C@@H](CC(C)C)NC(=O)[C@H](CCN)NC2=O)NC(=O)[C@H](CCN)NC(=O)[C@H](Cc2ccc(O)cc2)NC1=O)C(C)C` [Ex. 307] (I: Ac-VCY[Dab]E[dDab]SWSVCS-NH2 / II: [Dab]G[Dap][Dab][Dab][dL]L[Dab][Dab]T; disulfide I:2-I:11; amide I:5-II:N; lactam II:4-II:C), for which the MIC – broadly, the lowest concentration found to suppress growth – in data set [1] (872842) was determined as 0.5 µg/mL (≈ 0.212 µM); in data set [3] (848840), 4 µg/mL (≈ 1.7 µM); against Escherichia coli 926415 (926415) it was 0.5 µg/mL (≈ 0.212 µM); in data set [5] (968733), 1 µg/mL (≈ 0.425 µM). Besides, the “Acinetobacter baumannii DSM 30008 MIC” value in [2] is 0.25 µg/mL. The “Escherichia coli ATCC 25922 MIC” value in data set [4] was 0.125 µg/mL. Further, the “Klebsiella pneumoniae SSI #3010 MIC” value in [6] came to 0.125 µg/mL. Also, in [7], the “Pseudomonas aeruginosa ATCC 27853 MIC” value was determined as 0.125 µg/mL. Besides, the “Hemolysis at 200 μg/mL” value in [8] (red cells of human, 1 h, 200) was under 1%.
For the molecule `CC(=O)N[C@H](C(=O)N[C@H]1CSSC[C@@H](C(=O)N[C@@H](CO)C(=O)N[C@@H](CC(=O)O)C(N)=O)NC(=O)[C@H](C(C)C)NC(=O)[C@H](CO)NC(=O)[C@H](Cc2c[nH]c3ccccc23)NC(=O)[C@H](CCN)NC(=O)[C@@H](CCN)NC(=O)[C@H](CCC(=O)N[C@@H](CCN)C(=O)N[C@H](C(=O)N[C@@H](CN)C(=O)N[C@H]2CCNC(=O)[C@H]([C@@H](C)O)NC(=O)[C@H](CCN)NC(=O)[C@H](CCN)NC(=O)[C@H](CC(C)C)NC(=O)[C@@H](CC(C)C)NC(=O)[C@H](CCN)NC2=O)[C@@H](C)O)NC(=O)[C@H](CO)NC(=O)[C@H](Cc2ccc(O)cc2)NC1=O)C(C)C` [Ex. 371] (I: Ac-VCYSE[dDab][Dab]WSVCSD-NH2 / II: [Dab]T[Dap][Dab][Dab][dL]L[Dab][Dab]T; disulfide I:2-I:11; amide I:5-II:N; lactam II:4-II:C), the MIC in [1] (872842) came out at 0.0625 µg/mL (≈ 0.0249 µM); in [3] (848840) it was 0.5 µg/mL (≈ 0.199 µM); against Escherichia coli 926415 (926415), 0.25 µg/mL (≈ 0.0994 µM); in data set [5] (968733) it was 0.5 µg/mL (≈ 0.199 µM). Also, the “Acinetobacter baumannii DSM 30008 MIC” value in data set [2] came to 0.0625 µg/mL. In addition, the “Escherichia coli ATCC 25922 MIC” value in [4] came to 0.0625 µg/mL. Also, in [6], the “Klebsiella pneumoniae SSI #3010 MIC” value turned out to be 0.0625 µg/mL. Moreover, the “Pseudomonas aeruginosa ATCC 27853 MIC” value in data set [7] is 0.0625 µg/mL. In [8] (red cells of human, 1 h, 200), the “Hemolysis at 200 μg/mL” value is 0%.
In the case of `CC(=O)N[C@H](C(=O)N[C@H]1CCNC(=O)CC[C@@H](C(=O)N[C@@H](CO)C(N)=O)NC(=O)[C@H](C(C)C)NC(=O)[C@H](CO)NC(=O)[C@H](Cc2c[nH]c3ccccc23)NC(=O)[C@H](CO)NC(=O)[C@@H](CCN)NC(=O)[C@H](CCC(=O)N[C@@H](CCN)C(=O)N[C@H](C(=O)N[C@@H](CCN)C(=O)N[C@H]2CCNC(=O)[C@H]([C@@H](C)O)NC(=O)[C@H](CCN)NC(=O)[C@H](CCN)NC(=O)[C@H](CC(C)C)NC(=O)[C@@H](CC(C)C)NC(=O)[C@H](CCN)NC2=O)[C@@H](C)O)NC(=O)[C@H](CCN)NC(=O)[C@H](Cc2ccc(O)cc2)NC1=O)C(C)C` [Ex. 321] (I: Ac-V[Dab]Y[Dab]E[dDab]SWSVES-NH2 / II: [Dab]T[Dab][Dab][Dab][dL]L[Dab][Dab]T; lactam I:2-I:11, II:4-II:C; amide I:5-II:N), the MIC in data set [1] (872842) is 0.25 µg/mL (≈ 0.103 µM); in data set [3] (848840) it was 0.25 µg/mL (≈ 0.103 µM); with Escherichia coli 926415 (926415), 0.5 µg/mL (≈ 0.207 µM); in [5] (968733), 1 µg/mL (≈ 0.413 µM). In [2], the “Acinetobacter baumannii DSM 30008 MIC” value was 0.125 µg/mL. In addition, in data set [4], the “Escherichia coli ATCC 25922 MIC” value came out at 0.0625 µg/mL. In addition, in data set [6], the “Klebsiella pneumoniae SSI #3010 MIC” value turned out to be 0.125 µg/mL. Moreover, the “Pseudomonas aeruginosa ATCC 27853 MIC” value in data set [7] was found to be 0.125 µg/mL. The “Hemolysis at 200 μg/mL” value in data set [8] (red cells of human, 1 h, 200) came out at 0%.
With `CC(=O)N[C@H](C(=O)N[C@H]1CSSC[C@@H](C(=O)N[C@H](CO)Cc2ccc(O)cc2)NC(=O)[C@H](C(C)(C)C)NC(=O)[C@H](CO)NC(=O)[C@H](Cc2c[nH]c3ccccc23)NC(=O)[C@H](CCO)NC(=O)[C@@H](CCN)NC(=O)[C@H](CCC(=O)N[C@@H](CCN)C(=O)N[C@H](C(=O)N[C@@H](CCN)C(=O)N[C@H]2CCNC(=O)[C@H]([C@@H](C)O)NC(=O)[C@H](CCN)NC(=O)[C@H](CCN)NC(=O)[C@H](CC(C)C)NC(=O)[C@@H](CC(C)C)NC(=O)[C@H](CCN)NC2=O)[C@@H](C)O)NC(=O)[C@H](CCN)NC(=O)[C@H](CO)NC1=O)C(C)C` [Ex. 94] (I: Ac-VCS[Dab]E[dDab][hSer]WS[Tle]C-Tyrosinol / II: [Dab]T[Dab][Dab][Dab][dL]L[Dab][Dab]T; disulfide I:2-I:11; amide I:5-II:N; lactam II:4-II:C), the MIC in data set [1] (Acinetobacter baumannii 872842 clinical isolate, Mueller-Hinton II broth) came to 0.25 µg/mL (≈ 0.103 µM); in data set [2] (Acinetobacter baumannii DSM 30008, Mueller-Hinton II broth), 0.125 µg/mL (≈ 0.0515 µM); in [3] (Enterobacter cloacae 848840 clinical isolate, Mueller-Hinton II broth), 1 µg/mL (≈ 0.412 µM); against Escherichia coli 926415 (Escherichia coli 926415 clinical isolate, Mueller-Hinton II broth), 0.25 µg/mL (≈ 0.103 µM); in data set [4] (Escherichia coli ATCC 25922, Mueller-Hinton II broth), 0.0625 µg/mL (≈ 0.0257 µM); in [5] (Klebsiella pneumoniae 968733 clinical isolate, Mueller-Hinton II broth) it was 0.25 µg/mL (≈ 0.103 µM). Also, the minimum inhibitory concentration (MIC) in data set [6] (Klebsiella pneumoniae SSI #3010, Mueller-Hinton II broth) is 0.0625 µg/mL (≈ 0.0257 µM); in data set [7] (Pseudomonas aeruginosa ATCC 27853, Mueller-Hinton II broth) it was 0.25 µg/mL (≈ 0.103 µM). For the same molecule, in data set [8] (200 μg/mL, human red blood cells), the “Hemolysis at 200 μg/mL” value was under 1%.
Consider `CC(=O)N[C@@H](CC(C)C)C(=O)N[C@H]1CSSC[C@@H](C(=O)N[C@@H](CO)C(N)=O)NC(=O)[C@H](C(C)(C)C)NC(=O)[C@H](CCN)NC(=O)[C@H](Cc2c[nH]c3ccccc23)NC(=O)[C@H](CCN)NC(=O)[C@@H](CCN)NC(=O)[C@H](CCC(=O)N[C@@H](CCN)C(=O)N[C@H](C(=O)N[C@@H](CCN)C(=O)N[C@H]2CCNC(=O)[C@H]([C@@H](C)O)NC(=O)[C@H](CCN)NC(=O)[C@H](CCN)NC(=O)[C@H](CC(C)C)NC(=O)[C@@H](CC(C)C)NC(=O)[C@H](CCN)NC2=O)[C@@H](C)O)NC(=O)[C@H](CCN)NC(=O)[C@H](Cc2ccc(O)cc2)NC1=O` [Ex. 352] (I: Ac-LCY[Dab]E[dDab][Dab]W[Dab][Tle]CS-NH2 / II: [Dab]T[Dab][Dab][Dab][dL]L[Dab][Dab]T; disulfide I:2-I:11; amide I:5-II:N; lactam II:4-II:C), for which the MIC in data set [1] (872842) amounted to 4 µg/mL (≈ 1.62 µM); in data set [3] (848840), 8 µg/mL (≈ 3.24 µM); in the data set with Escherichia coli 926415 (926415) it was 0.25 µg/mL (≈ 0.101 µM); in data set [5] (968733), 0.5 µg/mL (≈ 0.203 µM). Besides, in data set [2], the “Acinetobacter baumannii DSM 30008 MIC” value was found to be 1 µg/mL. Moreover, the “Escherichia coli ATCC 25922 MIC” value in data set [4] was found to be 0.125 µg/mL. Moreover, the “Klebsiella pneumoniae SSI #3010 MIC” value in [6] is 0.125 µg/mL. Further, the “Pseudomonas aeruginosa ATCC 27853 MIC” value in data set [7] is 0.25 µg/mL. Moreover, the “Hemolysis at 200 μg/mL” value in [8] (red cells of human, 1 h, 200) is reported as under 1%.
